# According to US20260042801A1, “COMPOSITIONS AND METHODS FOR DYE-BOUND CYCLIZED PEPTIDES FOR MEDICAL USE” (The Texas A&M University System, priority 2022, published 2026):
# Key:
# [1] = test system: severe T8 contusion/compression SCI; assay: Preclinical SCI model: histological analysis of spinal cord; format: in vivo, mouse; conditions: 7 weeks post injury
# Source text: FIGS. 11A-11E: Histological analysis of spinal cords after 5c(i) treatment. […] 7 weeks post injury, spinal cords were sectioned sagittal to conduct histological analyses. Value of 11A) change in intensity of 5-HT, average fluorescence intensity of 11B) IBA1 and 11C) CD68, and number of 11D) CD68+ and 11E) SOX9+ cells in relation to distance from injury (− value represents rostral to injury, + value represents caudal to injury). […] N=6-8. Graphs show mean and SEM. […] Student's T-test.
# Mice were sacrificed 7 weeks after injury by a lethal dose of Fatal plus (pentobarbital), then, transcardial perfusion was performed with PBS-Heparin (10,000 unit/L, 20 mL, 5 mL/min) followed by a 4% paraformaldehyde fixative solution (30 mL/mouse, at 5 mL/min). Right after perfusion, tissues were immersed in 4% PFA for 24 hours, transferred to 15% sucrose for 24 hours, then transferred to 30% sucrose for 24 hours before being embedded. Subsequently, the spinal cords (at injury site±1 mm) were cut into 25 μm-thick transverse sections using a freezing microtome (THERMO FISHER SCIENTIFIC® (laboratory reagents), Microm HM550). For immunohistochemistry (IHC), the spinal cord tissue sections were placed in a blocking solution (5% BSA, 0.4% Triton X-100, PBS) for 1 hour at room temperature. This was followed by overnight incubation with primary antibodies at room temperature. The tissue sections were subsequently washed 3 times with 0.4% Triton X-100-PBS, followed by 1 hour incubation at room temperature with the appropriate secondary antibodies (1:500, INVITROGEN™ (laboratory reagents) ALEXA FLUOR® (fluorescent dyes) Plus series). The primary antibodies included biotinylated NeuN (EMD MILLIPORE® (pharmaceuticals and chemicals), MAB377B, 1:500), rat GFAP (FISHER SCIENTIFIC® (laboratory reagents), 130300, 1:500), rabbit Iba1 (FUJIFILM® (camera components) Wako Chemicals, 019-19741, 1:500), rat CD68 (BIO-RAD®, (electrophoresis and chromatography materials) MCA1957, 1:500), goat SOX9 (R&D SYSTEMS® (biological reagents), AF3075, 1:500), and rabbit anti-5-HT (ImmunoStar, 20080, 1:500). Sections were stained with DAPI (1:5000, Millipore Sigma) to visualize the nucleus. The images were acquired using VS120 Virtual Slide Microscope (Olympus) and Axio Observer 7 (ZEISS® (optical products)) and analyzed with QuPath 0.4.3. The contour (polygonal) tool in the Zen 3.2 (Carl Zeiss AG, Jena, Germany) software was used to trace and measure lesion and cavity size. The lesion size was measured by tracing the glial scar border labeled with GFAP surrounding a DAPI^+ inner region. Cavity size was measured by measuring the region within the spinal cord without any visible nuclei yet surrounded by GFAP labeled glial scar. Three spinal cord sections per animal were imaged and analyzed. The 3 sections included the section containing the largest lesion size along with sections 300 μm rostral and caudal. Images were quantified using QuPath software. Eight boxes with a width of 200 μm were drawn both rostral and caudal of the injury epicenter. A contour polygon was made around the spinal cord in each of the sixteen boxes. Fluorescent intensity and cell counting was conducted using automated QuPath software. Histological analysis on liver tissue was conducted by sectioning the left lobe of the liver into 8 μm-thick transverse sections. […] Collagen accumulation was quantified using automated QuPath software to determine the extent of fibrosis.
# [2] = test system: primary adult cortical astrocytes; assay: Astrocyte scratch assay (injury model); format: cell-based, mouse; conditions: astrocytes from 6-month-old female mice, 48 hours after scratching
# Method: FIGS. 5A-5C: 5c(i) reduces injury size. Primary adult cortical astrocytes from 6-month-old female mice were scratched to form the injury model and immediately after were incubated with 5c(i) for 48 hours (5A). Graph represents mean t SEM. Images represent the 5B) Vehicle and 5C) 5000 nM 5c(i) treated groups stained with Phalloidin. Linear regression was conducted to determine statistical significance. N=10. Scale bar=500 μm.
# For neuronal cultures, the neuron enriched fraction was added onto plastic bottom (Greiner-Bio, 781091) plates and incubated inside a 5% C02 incubator at 37° C. for 2 days. Pharmaceutical agents were added at the time of cell plating. For astrocyte cultures, the glia fraction was added onto plastic bottom (Greiner-Bio, 781091) plates and incubated inside a 5% C02 incubator at 37° C. for 5 days for 100% confluency to be reached. Then, the astrocytes were scratched to form the scratch assay model and the pharmaceutical agents were added at the time of scratching. 10,000 cells were plated per well with 0.056 cm^2 growth area for both the neuronal and glia cultures.
# Cell cultures were fixed with 4% paraformaldehyde (PFA, 15 min) after the completion of the respective in vitro experiment. […]
substance,measurement,setting,value
C-DIRG-C BODIPY® (fluorescent dye) [5c(i)],number of SOX9′ cells,[1]; around the injury site,reduced
same,prevalence of CD68+ cells,[1]; around the injury site,significantly reduced
same,CD68 immunoreactivity,[1]; at the injury site,significantly reduced
same,serotonergic (5-HT) axon immunoreactivity,[1]; caudal to the injury site,increased
same,IBA1 immunoreactivity,[1]; spinal cord,reduced
same,artificial wound closure,[2],closing at an expedited rate
